Holding throughout (type): biochemical
One experiment has as its target LCK (Homo sapiens, UniProt P06239). Put plainly: Inhibition of a panel of kinases, in vitro HotSpot kinase assay: LCK. The following applies: read-out: IC50 LCK.
A further experiment has as its target T1, ITK (Homo sapiens, UniProt Q08881).
T1 sequence (Q08881 1-620): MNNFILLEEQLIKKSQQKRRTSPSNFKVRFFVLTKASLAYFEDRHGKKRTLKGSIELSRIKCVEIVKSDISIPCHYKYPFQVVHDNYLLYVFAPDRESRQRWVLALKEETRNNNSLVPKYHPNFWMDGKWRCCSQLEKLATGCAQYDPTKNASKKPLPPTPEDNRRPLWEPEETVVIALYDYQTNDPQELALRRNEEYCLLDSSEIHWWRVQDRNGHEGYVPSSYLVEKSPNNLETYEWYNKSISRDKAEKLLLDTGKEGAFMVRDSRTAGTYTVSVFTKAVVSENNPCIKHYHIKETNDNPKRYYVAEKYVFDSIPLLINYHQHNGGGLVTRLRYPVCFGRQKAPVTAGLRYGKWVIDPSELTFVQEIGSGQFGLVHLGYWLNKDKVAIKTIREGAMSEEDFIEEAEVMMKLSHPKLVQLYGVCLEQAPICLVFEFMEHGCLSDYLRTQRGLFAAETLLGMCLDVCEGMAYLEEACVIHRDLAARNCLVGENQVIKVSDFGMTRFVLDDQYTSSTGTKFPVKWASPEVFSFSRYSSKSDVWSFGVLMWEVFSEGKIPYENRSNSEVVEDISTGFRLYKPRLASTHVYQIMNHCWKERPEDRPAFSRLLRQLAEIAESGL
The experiment can be described thus: Inhibition of a panel of kinases, in vitro HotSpot kinase assay: ITK. Here is the method:
The degree of inhibition of a panel of kinases is determined using the in vitro HotSpot kinase assay (purified enzymes, ^33P-ATP, an appropriate substrate and 1 μM ATP).

A further experiment deals with T2, BTK-WT (Homo sapiens, UniProt Q06187).
T2 construct: purified from insect cells as a full-length construct containing an N-terminal 6X-His tag; His6 (N); made in house; host or cells: insect cells (baculovirus Sf21 in Method B)
The experiment can be described thus: Btk in vitro inhibitory activity (one of Method A TR-FRET, Method B electrophoretic mobility shift, Method C radiometric filter binding). To be noted: read-out: IC50 BTK-WT.

[1] abbreviates: Table 13, A compounds, 1 μM ATP.

For 16 compounds, IC50 results are on record in patent US20210070748A1, “INHIBITORS OF BRUTONS TYROSINE KINASE” (Pharmacyclics LLC, priority 2015, published 2021).

Where two headings read alike, the source gives them in different places. Bounds are passed on as bounds.

T2 sequence (Q06187 whole entry): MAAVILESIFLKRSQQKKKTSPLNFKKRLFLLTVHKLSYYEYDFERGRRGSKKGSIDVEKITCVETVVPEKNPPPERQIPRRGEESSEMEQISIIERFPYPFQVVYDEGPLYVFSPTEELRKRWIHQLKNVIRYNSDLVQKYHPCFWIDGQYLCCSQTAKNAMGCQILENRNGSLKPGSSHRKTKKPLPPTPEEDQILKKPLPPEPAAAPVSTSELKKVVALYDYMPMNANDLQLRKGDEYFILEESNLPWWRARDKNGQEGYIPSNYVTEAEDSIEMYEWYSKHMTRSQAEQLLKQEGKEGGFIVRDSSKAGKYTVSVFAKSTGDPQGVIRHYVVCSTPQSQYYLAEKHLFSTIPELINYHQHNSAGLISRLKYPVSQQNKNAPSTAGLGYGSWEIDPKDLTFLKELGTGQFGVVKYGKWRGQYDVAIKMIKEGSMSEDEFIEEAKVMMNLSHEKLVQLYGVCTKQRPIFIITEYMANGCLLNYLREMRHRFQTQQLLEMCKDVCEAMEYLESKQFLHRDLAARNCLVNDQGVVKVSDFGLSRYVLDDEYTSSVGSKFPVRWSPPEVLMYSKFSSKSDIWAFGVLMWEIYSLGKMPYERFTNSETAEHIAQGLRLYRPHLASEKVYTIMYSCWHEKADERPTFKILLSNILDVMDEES
Sequence of LCK (P06239 whole entry): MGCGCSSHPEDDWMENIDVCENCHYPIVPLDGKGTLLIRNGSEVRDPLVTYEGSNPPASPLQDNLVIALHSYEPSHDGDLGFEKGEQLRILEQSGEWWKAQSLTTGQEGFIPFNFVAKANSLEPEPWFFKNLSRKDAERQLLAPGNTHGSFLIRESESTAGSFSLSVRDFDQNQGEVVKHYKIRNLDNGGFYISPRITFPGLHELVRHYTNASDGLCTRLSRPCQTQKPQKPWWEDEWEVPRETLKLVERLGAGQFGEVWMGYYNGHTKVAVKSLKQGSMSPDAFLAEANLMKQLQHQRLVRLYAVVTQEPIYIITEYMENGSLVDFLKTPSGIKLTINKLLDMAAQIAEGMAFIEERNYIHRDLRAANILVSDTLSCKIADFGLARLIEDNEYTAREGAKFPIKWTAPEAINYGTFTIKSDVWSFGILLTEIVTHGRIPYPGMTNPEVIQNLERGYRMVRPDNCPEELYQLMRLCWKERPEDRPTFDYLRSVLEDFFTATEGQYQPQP

By IC50 is commonly meant the concentration at which inhibition is half-maximal. Take `C[C@@H]1[C@H](NC(=O)c2ccc(C3CC3)cc2)CCCN1c1cnc(C(N)=O)c(Nc2ccc(OC3CCN(C)C3)cc2)n1` (stereo partly drawn) [Example E-136, 5-((2R,3R)-3-(4-cyclopropylbenzamido)-2-methylpiperidin-1-yl)-3-((4-((1-methylpyrrolidin-3-yl)oxy)phenyl)amino) pyrazine-2-carboxamide]: the IC50 on LCK (E compounds, Table 17) is 10 to 100 nM; on ITK (E compounds, Table 17), 10 to 100 nM; at BTK-WT (E compounds, Table 17), ≤ 10 nM.
Consider `C[C@@H]1[C@H](NC(=O)c2ccc(C3CC3)cn2)CCCN1c1cnc(C(N)=O)c(Nc2ccc(N3CCN(C)CC3)cc2)n1` [Example A-179, 5-[(2R,3R)-3-(5-cyclopropyl-pyridine-2-amido)-2-methylpiperidin-1-yl]-3-{[4-(4-methylpiperazin-1-yl)phenyl]amino}pyrazine-2-carboxamide], for which the IC50 on LCK (setting [1]) was 100 to 1000 nM; against ITK (setting [1]), 100 to 1000 nM; on BTK-WT (Table 13, A compounds), ≤ 10 nM.
Consider `C=CC(=O)N1CC[C@@H](N(C)c2cnc(C(N)=O)c(Nc3ccc(C4CCN(C5CCCC5)CC4)cc3)n2)C1` [Example E-109, (R)-5-((1-acryloylpyrrolidin-3-yl)(methyl)amino)-3-(4-(1-cyclopentylpiperidin-4-yl)phenylamino)pyrazine-2-carboxamide], for which the IC50 at LCK (E compounds, Table 17) was 100 to 1000 nM; against ITK (E compounds, Table 17), ≤ 10 nM; on BTK-WT (E compounds, Table 17), ≤ 10 nM.
On to `C[C@@H]1[C@H](NC(=O)c2noc(C(C)(C)C)n2)CCCN1c1cnc(C(N)=O)c(Nc2cnn(C)c2)n1` [Example E-149, 5-(tert-butyl)-N-((2R,3R)-1-(5-carbamoyl-6-((1-methyl-1H-pyrazol-4-yl)amino)pyrazin-2-yl)-2-methylpiperidin-3-yl)-1,2,4-oxadiazole-3-carboxamide], for which the IC50 on LCK (E compounds, Table 17) was in the range of 1000 to 10000 nM; against ITK (E compounds, Table 17), 1000 to 10000 nM; at BTK-WT (E compounds, Table 17), 100 to 1000 nM.
Regarding `C[C@@H]1[C@H](NC(=O)c2ccc3c(c2)C(C)(C)OC3)CCCN1c1cnc(C(N)=O)c(Nc2cnn(C)c2)n1` [Example E-153, 5-((2R,3R)-3-(3,3-dimethyl-1,3-dihydroisobenzofuran-5-carboxamido)-2-methylpiperidin-1-yl)-3-((1-methyl-1H-pyrazol-4-yl)amino)pyrazine-2-carboxamide], the IC50 at LCK (E compounds, Table 17) is 10 to 100 nM; against ITK (E compounds, Table 17), 100 to 1000 nM; at BTK-WT (E compounds, Table 17) it was ≤ 10 nM.
Take `C[C@@H]1[C@H](NC(=O)c2ccc(-c3ncco3)cc2)CCCN1c1cnc(C(N)=O)c(Nc2cnn(C)c2)n1` [Example E-154, 3-((1-methyl-1H-pyrazol-4-yl)amino)-5-((2R,3R)-2-methyl-3-(4-(oxazol-2-yl)benzamido)piperidin-1-yl)pyrazine-2-carboxamide]: the IC50 is 10 to 100 nM at LCK (E compounds, Table 17); 100 to 1000 nM against ITK (E compounds, Table 17); ≤ 10 nM at BTK-WT (E compounds, Table 17).
As for `C[C@@H]1[C@H](NC(=O)c2ccc(C3CC3)cc2F)CCCN1c1cnc(C(N)=O)c(Nc2ccc(N3CCN(C4CCCC4)CC3)cc2)n1` [Example A-125, 3-{[4-(4-cyclopentylpiperazin-1-yl)phenyl]amino}-5-[(2R,3R)-3-(4-cyclopropyl-2-fluorobenzamido)-2-methylpiperidin-1-yl]pyrazine-2-carboxamide], the IC50 on LCK (setting [1]) is 100 to 1000 nM; against ITK (setting [1]), 100 to 1000 nM; on BTK-WT (Table 13, A compounds), ≤ 10 nM.
Consider `C[C@@H]1[C@H](NC(=O)c2ccc3oc(C4CC4)nc3c2)CCCN1c1cnc(C(N)=O)c(Nc2cnn(C)c2)n1` [Example E-139, N-((2R,3R)-1-(5-carbamoyl-6-((1-methyl-1H-pyrazol-4-yl)amino)pyrazin-2-yl)-2-methylpiperidin-3-yl)-2-cyclopropylbenzo[d] oxazole-5-carboxamide], for which the IC50 at LCK (E compounds, Table 17) was 10 to 100 nM; at ITK (E compounds, Table 17), 100 to 1000 nM; at BTK-WT (E compounds, Table 17) it was ≤ 10 nM.
With `C[C@@H]1[C@H](NC(=O)c2ccc(C3CC3)cc2)CCCN1c1cnc(C(N)=O)c(Nc2ccc(N3CCN(C)C[C@@H]3C)cc2)n1` [Example E-148, 5-((2R,3R)-3-(4-cyclopropylbenzamido)-2-methylpiperidin-1-yl)-3-((4-((S)-2,4-dimethylpiperazin-1-yl)phenyl)amino)pyrazine-2-carboxamide], the concentration for half-maximal inhibition (IC50) at LCK (E compounds, Table 17) is 10 to 100 nM; at ITK (E compounds, Table 17), 10 to 100 nM; on BTK-WT (E compounds, Table 17), ≤ 10 nM.
As to `C[C@@H]1[C@H](NC(=O)c2ccc(C3CC3)cc2F)CCCN1c1cnc(C(N)=O)c(Nc2ccc(CN3CCN(C)CC3)cc2)n1` [Example A-106, 5-[(2R,3R)-3-(4-cyclopropyl-2-fluorobenzamido)-2-methylpiperidin-1-yl]-3-({4-[(4-methylpiperazin-1-yl)meth-yl]phenyl}amino)pyrazine-2-carboxamide], the IC50 on LCK (setting [1]) was 10 to 100 nM; against ITK (setting [1]), 100 to 1000 nM; at BTK-WT (Table 13, A compounds), ≤ 10 nM.
For the compound `C[C@@H]1[C@H](NC(=O)c2ccc(C3CC3)cc2F)CCCN1c1cnc(C(N)=O)c(Nc2ccc(N3CCN(C)CC3)nc2)n1` [Example A-177, 5-[(2R,3R)-3-(4-cyclopropyl-2-fluorobenzamido)-2-methylpiperidin-1-yl]-3-{[6-(4-methylpiperazin-1-yl)pyridin-3-yl]amino}pyrazine-2-caoxamide], the IC50 was 100 to 1000 nM at LCK (setting [1]); 1000 to 10000 nM against ITK (setting [1]); ≤ 10 nM on BTK-WT (Table 13, A compounds).
Turning to `C[C@@H]1[C@H](NC(=O)c2ccc(C(C)(C)C)cc2)CCCN1c1cnc(C(N)=O)c(Nc2ccc(N3CCN(C)CC3)cc2)n1` [Example A-184, 5-[(2R,3R)-3-(4-tert-butylbenzamido)-2-methylpiperidin-1-yl]-3-{[4-(4-methylpiperazin-1-yl)phenyl]amino}pyrazine-2-carboxamide], the IC50 on LCK (setting [1]) is > 10000 nM; against ITK (setting [1]), 100 to 1000 nM; on BTK-WT (Table 13, A compounds), ≤ 10 nM.
`C=CC(=O)N[C@@H]1CCCN(c2cnc(C(N)=O)c(Nc3ccc(C4CCN(C5CC5)CC4)cc3)n2)[C@@H]1C` [Example E-93, 5-((2R,3R)-3-acrylamido-2-methylpiperidin-1-yl)-3-(4-(1-cyclopropylpiperidin-4-yl)phenylamino)pyrazine-2-carboxamide]: the half-inhibitory concentration (IC50) at LCK (E compounds, Table 17) is 10 to 100 nM; against ITK (E compounds, Table 17), 10 to 100 nM; on BTK-WT (E compounds, Table 17), ≤ 10 nM.
Regarding `C=CC(=O)N1CCC[C@@H](Nc2nnc(C(N)=O)c(Nc3ccc(C(C)(C)C)cc3)n2)C1` [Example E-24, (R)-3-(1-acryloylpiperidin-3-ylamino)-5-(4-tert-butylphenylamino)-1,2,4-triazine-6-carboxamide], the IC50 on LCK (E compounds, Table 17) is 100 to 1000 nM; against ITK (E compounds, Table 17), ≤ 10 nM; at BTK-WT (E compounds, Table 17), ≤ 10 nM.
For `C[C@@H]1[C@H](NC(=O)c2ccc(C3CC3)cc2)CCCN1c1cnc(C(N)=O)c(Nc2ccc(N3CCN(C)CC3)cc2)n1` [Example A-170, 5-[(2R,3R)-3-(4-cyclopropylbenzamido)-2-methylpiperidin-1-yl]-3-{[4-(4-methylpiperazin-1-yl)phenyl]amino}pyrazine-2-carboxamide], the IC50 at LCK (setting [1]) was 10 to 100 nM; against ITK (setting [1]), 100 to 1000 nM; on BTK-WT (Table 13, A compounds), ≤ 10 nM.
Regarding `C[C@@H]1[C@H](NC(=O)c2cc(C(C)(C)C)nn2C)CCCN1c1cnc(C(N)=O)c(Nc2cnn(C)c2)n1` [Example E-146, 5-((2R,3R)-3-(3-(tert-butyl)-1-methyl-1H-pyrazole-5-carboxamido)-2-methylpiperidin-1-yl)-3-((1-methyl-1H-pyrazol-4-yl)amino)pyrazine-2-carboxamide], the IC50 at LCK (E compounds, Table 17) is 10 to 100 nM; against ITK (E compounds, Table 17), 100 to 1000 nM; on BTK-WT (E compounds, Table 17), ≤ 10 nM.
